14 compounds from US12145947B2, “Pyrimidine based modulators and uses thereof” (Quanta Therapeutics, Inc., priority 2022, dated 2024) can be followed below.

By IC50 is commonly meant the point on the concentration scale where inhibition reaches its midpoint. Read a low IC50 as greater potency.

The experiment deals with T1, GST-tagged KRAS-G12D (2-169) (Homo sapiens, UniProt P01116, G12D).
T1 construct: GST-tagged KRAS-G12D (2-169, Reaction Biology, MSC-11-539); purchased Reaction Biology MSC-11-539 (KRAS G12D); MSC-11-502 (SOS1cat)
T1 sequence (P01116 2-169 isoform P01116-2 G12D): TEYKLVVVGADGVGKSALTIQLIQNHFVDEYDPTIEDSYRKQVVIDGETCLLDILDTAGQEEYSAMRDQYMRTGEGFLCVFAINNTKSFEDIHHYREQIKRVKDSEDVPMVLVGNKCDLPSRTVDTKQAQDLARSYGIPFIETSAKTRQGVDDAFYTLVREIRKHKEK
As to the kind of experiment: Nucleotide exchange assay (NEA), SOS-mediated, HTRF, KRAS G12D. The settings on record: Table 4, IC50 extracted at 30 min. In kind it is biochemical. The essentials: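 GST-KRAS-G12D (2-169, 5 nM final) with Tb-anti-GST donor was preincubated with compound 1 h at RT (pH 7.3 HEPES buffer, MgCl2, DTT), then SOScat (564-1049, 20 nM) and GTP-DY-647P1 (150 nM) were added. HTRF was read at RT; % inhibition vs DMSO/no-SOS blank, 4-parameter IC50 taken at 30 min.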
On the technique in general: Time-resolved FRET reads energy transfer from a long-lived donor to a nearby acceptor.

Turning to `N#Cc1c(N2C[C@H]3COC[C@@H](C2)N3)nc(OCC2(CN3CCOCC3)CC2)nc1N1CC2(CCc3sc(N)c(C#N)c32)C1` [Compound 42, 2-amino-1′-[5-cyano-2-[[1-(morpholinomethyl)cyclopropyl]methoxy]-6-(3-oxa-7,9-diazabicyclo[3.3.1]nonan-7-yl)pyrimidin-4-yl]spiro[5,6-dihydrocyclopenta[b]thiophene-4,3′-azetidine]-3-carbonitrile], the IC50 was less than 0.01 µM. In the case of `N#Cc1c(N2CC3COCC(C2)N3)nc(OC[C@]23CCCN2C[C@@H](F)C3)nc1N1CC2(CCc3sc(N)c(C#N)c32)C1` [Compound 43, 2-amino-1′-[5-cyano-2-[[(2S,8R)-2-fluoro-1,2,3,5,6,7-hexahydropyrrolizin-8-yl]methoxy]-6-(3-oxa-7,9-diazabicyclo[3.3.1]nonan-7-yl)pyrimidin-4-yl]spiro[5,6-dihydrocyclopenta[b]thiophene-4,3′-azetidine]-3-carbonitrile], the IC50 lay within 0.01 to 0.1 µM. Compound `CC1CC2(CN(c3nc(OCC4(CN5CCOCC5)CC4)nc(N4C[C@H]5CC[C@@H](C4)N5)c3C#N)C2)c2c1sc(N)c2C#N` (stereo partly drawn) [Compound 45, 2-amino-1-[5-cyano-2-[[1-(morpholinomethyl)cyclopropyl]methoxy]-6-[(1R,5S)-3,8-diazabicyclo[3.2.1]octan-3-yl]pyrimidin-4-yl]-6-methyl-spiro[5,6-dihydrocyclopenta[b]thiophene-4,3′-azetidine]-3-carbonitrile] showed an IC50 of less than 0.01 µM. In turn, `Cc1nc(-c2nn3c(c2Cl)CN(c2nc(OC[C@@]45CCCN4C[C@H](F)C5)nc(N4CC5(CCc6sc(N)c(C#N)c65)C4)c2C#N)CCC3)no1` [Compound 46, 2-amino-1′-[6-[3-chloro-2-(5-methyl-1,2,4-oxadiazol-3-yl)-4,6,7,8-tetrahydropyrazolo[1,5-a][1,4]diazepin-5-yl]-5-cyano-2-[[(2R,8S)-2-fluoro-1,2,3,5,6,7-hexahydropyrrolizin-8-yl]methoxy]pyrimidin-4-yl]spiro[5,6-dihydrocyclopenta[b]thiophene-4,3′-azetidine]-3-carbonitrile] had an IC50 of less than 0.01 µM.

Turning to `CN(C)C1(COc2nc(N3C[C@H]4CC[C@@H](C3)N4)c(C#N)c(N3CC4(CCc5sc(N)c(C#N)c54)C3)n2)CC1` [Compound 47, 2-amino-1′-[5-cyano-6-[(1R,5S)-3,8-diazabicyclo[3.2.1]octan-3-yl]-2-[[1-(dimethylamino)cyclopropyl]methoxy]pyrimidin-4-yl]spiro[5,6-dihydrocyclopenta[b]thiophene-4,3′-azetidine]-3-carbonitrile], the IC50 is less than 0.01 µM. The same measure, in the same setting: in the case of `CN(CCOc1nc(N2C[C@H]3CC[C@@H](C2)N3)c(C#N)c(N2CC3(CCc4sc(N)c(C#N)c43)C2)n1)C1CCC1` [Compound 48, 2-amino-1′-[5-cyano-2-[2-[cyclobutyl(methyl)amino]ethoxy]-6-[(1R,5S)-3,8-diazabicyclo[3.2.1]octan-3-yl]pyrimidin-4-yl]spiro[5,6-dihydrocyclopenta[b]thiophene-4,3′-azetidine]-3-carbonitrile] it was 0.01 to 0.1 µM; in that of `N#Cc1c(N2CCCC(=O)CC2)nc(OC[C@@]23CCCN2C[C@H](F)C3)nc1N1CC2(CCc3sc(N)c(C#N)c32)C1` [Compound 49, 2-amino-1′-[5-cyano-2-[[(2R,8S)-2-fluoro-1,2,3,5,6,7-hexahydropyrrolizin-8-yl]methoxy]-6-(4-oxoazepan-1-yl)pyrimidin-4-yl]spiro[5,6-dihydrocyclopenta[b]thiophene-4,3′-azetidine]-3-carbonitrile], 0.01 to 0.1 µM; in that of `CN(C)CC1(COc2nc(N3C[C@H]4CC[C@@H](C3)N4)c(C#N)c(N3CC4(CCc5sc(N)c(C#N)c54)C3)n2)COC1` [Compound 52, 2-amino-1′-[5-cyano-6-[(1R,5S)-3,8-diazabicyclo[3.2.1]octan-3-yl]-2-[[3-[(dimethylamino)methyl]oxetan-3-yl]methoxy]pyrimidin-4-yl]spiro[5,6-dihydrocyclopenta[b]thiophene-4,3′-azetidine]-3-carbonitrile], less than 0.01 µM. `N#Cc1c(N2CCCn3nc(C(=O)C4CC4)c(Cl)c3C2)nc(OC[C@@]23CCCN2C[C@H](F)C3)nc1N1CC2(CCc3sc(N)c(C#N)c32)C1` [Compound 62, 2-amino-1′-[6-[3-chloro-2-(cyclopropanecarbonyl)-4,6,7,8-tetrahydropyrazolo[1,5-a][1,4]diazepin-5-yl]-5-cyano-2-[[(2R,8S)-2-fluoro-1,2,3,5,6,7-hexahydropyrrolizin-8-yl]methoxy]pyrimidin-4-yl]spiro[5,6-dihydrocyclopenta[b]thiophene-4,3′-azetidine]-3-carbonitrile] had an IC50 of less than 0.01 µM. On the same count and under the same terms, in the case of `N#Cc1c(N2C[C@H]3CC[C@@H](C2)N3)nc(OCC2(CN3CCOCC3)CC2)nc1N1CC2(CCCCc3sc(N)c(C#N)c32)C1` [Compound 70, 2-amino-1′-[5-cyano-2-[[1-(morpholinomethyl)cyclopropyl]methoxy]-6-[(1R,5S)-3,8-diazabicyclo[3.2.1]octan-3-yl]pyrimidin-4-yl]spiro[5,6,7,8-tetrahydrocyclohepta[b]thiophene-4,3′-azetidine]-3-carbonitrile] it was less than 0.01 µM; in that of `N#Cc1c(N2C[C@H]3CC[C@@H](C2)N3)nc(OCC2(CN3CC[S+]([O-])CC3)CC2)nc1N1CC2(CCc3sc(N)c(C#N)c32)C1` [Compound 71, 2-amino-1′-[5-cyano-6-[(1R,5S)-3,8-diazabicyclo[3.2.1]octan-3-yl]-2-[[1-[(1-oxo-1,4-thiazinan-4-yl)methyl]cyclopropyl]methoxy]pyrimidin-4-yl]spiro[5,6-dihydrocyclopenta[b]thiophene-4,3′-azetidine]-3-carbonitrile], less than 0.01 µM. The same measure, in the same setting: in the case of `N#Cc1c(N2C[C@H]3CC[C@@H](C2)N3)nc(OCC2(CN3CCOCC3)CC2)nc1N1CC2(CSc3sc(N)c(C#N)c32)C1` [Compound 73, 5-amino-1′-[5-cyano-2-[[1-(morpholinomethyl)cyclopropyl]methoxy]-6-[(1R,5S)-3,8-diazabicyclo[3.2.1]octan-3-yl]pyrimidin-4-yl]spiro[2H-thieno[2,3-b]thiophene-3,3′-azetidine]-4-carbonitrile] it was less than 0.01 µM. Turning to `CN(C)CC1(COc2nc(N3CC4CCC(C3)N4)c(C#N)c(N3CC4(CCc5sc(N)c(C#N)c54)C3)n2)CC1(F)F` (centres unmarked) [Compound 74A, 2-amino-1′-[5-cyano-6-(3,8-diazabicyclo[3.2.1]octan-3-yl)-2-[[(1*)-1-[(dimethylamino)methyl]-2,2-difluoro-cyclopropyl]methoxy]pyrimidin-4-yl]spiro[5,6-dihydrocyclopenta[b]thiophene-4,3′-azetidine]-3-carbonitrile], the IC50 (listed as 74.1) was less than 0.01 µM.

Consider `CN(C)CC1(COc2nc(N3CC4CCC(C3)N4)c(C#N)c(N3CC4(CCc5sc(N)c(C#N)c54)C3)n2)CC1(F)F` (centres unmarked) [Compound 74B, 2-amino-1′-[5-cyano-6-(3,8-diazabicyclo[3.2.1]octan-3-yl)-2-[[(1*)-1-[(dimethylamino)methyl]-2,2-difluoro-cyclopropyl]methoxy]pyrimidin-4-yl]spiro[5,6-dihydrocyclopenta[b]thiophene-4,3′-azetidine]-3-carbonitrile], for which the IC50 (listed as 74.2) was in the range of 0.01 to 0.1 µM.
